Reference: PubChem BioAssay (NCI)
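Where inhibition never reached the appropriate level, the endpoint shown equals the highest concentration tested. Otherwise, values were interpolated linearly from a five-concentration, 48-hour dose response in 96-well plates. Here, GI50 denotes the concentration required for 50% inhibition of growth. TGI: total growth inhibition.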

What was measured:
Assay in all cases: inhibition of tumour cell growth, NCI panel, 48 h
DU-145 prostate = test system: DU-145 prostate
UACC-257 melanoma = test system: UACC-257 melanoma
SR leukemia = test system: SR leukemia
MOLT-4 leukemia = test system: MOLT-4 leukemia
MDA-MB-435 = test system: MDA-MB-435
SNB-19 CNS = test system: SNB-19 CNS
BT-549 breast = test system: BT-549 breast
OVCAR-4 ovarian = test system: OVCAR-4 ovarian

SMILES | GI50 (DU-145 prostate) | TGI (DU-145 prostate) | GI50 (UACC-257 melanoma) | TGI (UACC-257 melanoma) | GI50 (SR leukemia) | TGI (SR leukemia) | GI50 (MOLT-4 leukemia) | TGI (MOLT-4 leukemia) | GI50 (MDA-MB-435) | TGI (MDA-MB-435) | GI50 (SNB-19 CNS) | TGI (SNB-19 CNS) | GI50 (BT-549 breast) | TGI (BT-549 breast) | GI50 (OVCAR-4 ovarian) | TGI (OVCAR-4 ovarian)
COc1ccc2[nH]c(O)c(/C=c3/ccc4c(c3)N=C(c3ccc(F)cc3)N=4)c2c1 | 2.23 µM | 6.87 µM | 3.92 µM | 15.3 µM | 4.95 µM | > 100 µM | 13.9 µM | > 100 µM | 3.2 µM | 40 µM | 9.47 µM | > 100 µM | 1.75 µM | 4.75 µM |  | 
Cc1ccc(C(=O)N=Nc2c(O)[nH]c3ccc(Cl)cc23)cc1 | 46.9 µM | > 50 µM | > 50 µM | > 50 µM | > 50 µM | > 50 µM | 3.2 µM | > 50 µM | 13 µM | 40.6 µM | 45.6 µM | > 50 µM | 25 µM | > 50 µM | 6.82 µM | 18 µM
Cn1c2ccccc2c2nnc(NNCc3ccccn3)nc21 | 0.312 µM | 11 µM | 0.641 µM | 11.1 µM | 0.311 µM | 18.7 µM | 0.38 µM | 12.6 µM | 0.555 µM | 14.5 µM | 0.597 µM | 17.4 µM | 0.729 µM | 14.9 µM | 0.451 µM | 13.9 µM
Nc1nc(-c2cc(-c3cccc4ccccc34)nc(N)n2)cc(-c2cccc3ccccc23)n1 |  | > 100 µM |  | > 100 µM |  | > 100 µM |  | > 100 µM |  | > 100 µM |  | > 100 µM |  | > 100 µM |  | > 100 µM
Cc1cc(S(N)(=O)=O)c(S/C(=N\Nc2ccc([N+](=O)[O-])cc2)c2ccc3ccccc3c2)cc1Cl | 13.2 µM | 43 µM | 30.1 µM | 78.3 µM | 42.6 µM | > 100 µM | 73.9 µM | > 100 µM | 22.2 µM | 64.9 µM | 67.5 µM | > 100 µM | 20.5 µM | 69.7 µM | 61.1 µM | > 100 µM
COc1ccc2nccc(/C=C/c3ccnc4ccc(OC)cc34)c2c1 | > 42.4 µM | > 63.4 µM | > 100 µM | > 100 µM | 21.8 µM | > 53.7 µM | > 55.1 µM | > 100 µM | > 79.5 µM | > 100 µM | > 100 µM | > 100 µM | > 63.4 µM | > 100 µM | 21.7 µM | > 52.5 µM
COc1cc(NC(C)CCCN)c2ncccc2c1Sc1ccc(Cl)cc1 (configuration not stated) | 1.85 µM | 3.32 µM | 1.63 µM | 3.15 µM |  |  | 1.84 µM | 4.16 µM | 1.86 µM | 3.57 µM | 1.8 µM | 3.46 µM |  |  | 1.72 µM | 3.1 µM
Cc1cc2c(=O)[nH]c(N)nc2nc1C |  | > 100 µM |  | > 100 µM |  | > 100 µM |  |  |  | > 100 µM |  | > 100 µM |  | > 100 µM |  | > 100 µM
CCN(CC)c1ccc(/C=C/C=C(/C#N)C(N)=S)cc1 | 3.88 µM | > 100 µM | 5.05 µM | 34.4 µM |  |  | 2.19 µM | 12 µM | 5.01 µM | > 100 µM | 40.4 µM | > 100 µM | 2.73 µM | 16 µM | 6.27 µM | > 100 µM
Cc1cn2c(/C=N/N=C(N)N)c(-c3ccsc3)nc2s1 |  |  | 18.7 µM | 35 µM |  |  | > 100 µM | > 100 µM | 11.1 µM | 24.6 µM | 7.31 µM | 23.7 µM | 15 µM | 29.5 µM |  | 
COc1ccc(C#CC2=C(c3cc(OC)c(OC)c(OC)c3)C(=O)OC2)cc1 |  |  | 13 µM | > 50 µM | 2.09 µM | > 50 µM | 1.1 µM | > 50 µM | 1.49 µM | 7.82 µM | 5.98 µM | > 50 µM | 2.13 µM | 15.7 µM | 1.51 µM | > 50 µM
C#CC(=O)OCC#CCOC(=O)C#C |  | 90.3 µM |  | > 100 µM |  |  |  |  |  | > 100 µM |  | > 100 µM |  | 36.6 µM |  | 
CN(C)c1ccc(/C=N/NC(=O)c2cccc3ccccc23)c(Cl)c1 | 4.07 µM | > 100 µM | 1.07 µM | 97.5 µM | 0.36 µM | > 100 µM | 2.31 µM | > 100 µM |  |  | 15.5 µM | > 100 µM | 0.733 µM | > 100 µM | 11.6 µM | 74.2 µM
